Read-outs that look alike come from different tables or passages of the source.
Legend:
[1] = biological target: T1, recombinant human Meningioma Expressed Antigen 5 (MGEA5), also referred to as O-GlcNAcase (OGA) (Homo sapiens, UniProt O60502); test: OGA biochemical assay: inhibition of FM-GlcNAc hydrolysis, fluorescence; protocol A (10 nM OGA, 1 h) or protocol B (2 nM OGA, 6 h); settings: for IC50: read-out: Enzymatic hOGA, pIC50 (converted)
T1 construct: Full length OGA enzyme was purchased at OriGene (cat # TP322411); purchased OriGene TP322411
T1 sequence (O60502 1-916): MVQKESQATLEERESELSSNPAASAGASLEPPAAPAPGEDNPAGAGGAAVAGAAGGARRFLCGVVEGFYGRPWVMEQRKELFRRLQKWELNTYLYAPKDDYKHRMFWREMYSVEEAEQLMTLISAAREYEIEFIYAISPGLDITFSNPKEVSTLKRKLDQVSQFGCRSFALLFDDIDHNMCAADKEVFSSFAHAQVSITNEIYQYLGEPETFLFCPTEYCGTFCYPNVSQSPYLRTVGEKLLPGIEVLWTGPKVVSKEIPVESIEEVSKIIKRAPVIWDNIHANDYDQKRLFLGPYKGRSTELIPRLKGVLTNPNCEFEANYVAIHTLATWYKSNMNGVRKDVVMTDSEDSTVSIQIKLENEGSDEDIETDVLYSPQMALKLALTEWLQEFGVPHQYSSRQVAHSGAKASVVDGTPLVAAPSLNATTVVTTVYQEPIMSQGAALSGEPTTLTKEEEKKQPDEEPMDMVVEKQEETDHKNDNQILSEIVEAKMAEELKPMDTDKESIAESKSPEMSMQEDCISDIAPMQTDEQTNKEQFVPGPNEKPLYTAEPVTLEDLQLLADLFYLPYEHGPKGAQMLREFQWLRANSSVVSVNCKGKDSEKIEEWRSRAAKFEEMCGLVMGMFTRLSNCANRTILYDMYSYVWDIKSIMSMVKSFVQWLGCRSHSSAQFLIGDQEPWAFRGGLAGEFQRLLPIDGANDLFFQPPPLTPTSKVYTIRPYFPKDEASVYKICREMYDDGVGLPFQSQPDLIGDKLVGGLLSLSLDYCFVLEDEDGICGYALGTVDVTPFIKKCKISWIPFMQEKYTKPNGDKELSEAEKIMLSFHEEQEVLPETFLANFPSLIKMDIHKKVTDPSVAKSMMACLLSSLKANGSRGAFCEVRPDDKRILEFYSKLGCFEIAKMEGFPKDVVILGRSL
Method: The hydrolysis FM-GlcNAc (Marker Gene technologies, cat # M1485) results in the formation of ß-D-N-glucosamineacetate and fluorescein. The fluorescence of the latter can be measured at excitation wavelength 485 nm and emission wavelength 538 nm. An increase in enzyme activity results in an increase in fluorescence signal. Full length OGA enzyme was purchased at OriGene (cat # TP322411). The enzyme was stored in 25 mM Tris.HCl, pH 7.3, 100 mM glycine, 10% glycerol at −20° C. […] The assay was performed in 200 mM Citrate/phosphate buffer supplemented with 0.005% Tween-20. 35.6 g Na2HPO4 2 H2O (Sigma, # C0759) were dissolved in 1 L water to obtain a 200 mM solution. […] The buffer to stop the reaction consists of a 500 mM Carbonate buffer, pH 11.0. […] OGA was used at a 10 nM (protocol A) or 2 nM (protocol B) concentration and FM-GlcNAc at a 100 uM final concentration. Dilutions were prepared in assay buffer.
Plates were pre-incubated for 60 min at room temperature and then 2 μl FM-GlcNAc substrate mix added. […] Plates were briefly centrifuged for 1 min at 1000 rpm and incubate at room temperature for 1 h (10 nM OGA, protocol A) or 6 h (2 nM OGA, protocol B). To stop the reaction 5 μl STOP buffer were added and plates centrifuge again 1 min at 1000 rpm. Fluorescence was quantified in the Thermo Scientific Fluoroskan Ascent or the PerkinElmer EnVision with excitation wavelength 485 nm and emission wavelength 538 nm.
For analysis a best-fit curve is fitted by a minimum sum of squares method. From this an IC50 value and Hill coefficient was obtained. High control (no inhibitor) and low control (saturating concentrations of standard inhibitor) were used to define the minimum and maximum values.

OGA = biological target: T2, OGA (Homo sapiens, UniProt O60502); test: OGA cellular assay: immunocytochemical detection of O-GlcNAcylated proteins in HEK293 cells inducible for P301L mutant human Tau; format: cell-based; settings: for Emax: HEK293, read-out: Cellular Emax (%); for Cellular hOGA; pEC50 / Cellular Emax (%): HEK293 cells inducible for P301L mutant human Tau, 6 hours incubation; for Cellular Emax (%): maximum = Thiamet G 200 uM
T2 construct: HEK293 cells inducible for P301L mutant human Tau (isoform 2N4R) were established at Janssen; endogenous in cells; host or cells: HEK293 cells inducible for P301L mutant human Tau (2N4R)
T2 sequence (O60502 1-916): T1 sequence (O60502 1-916)
From the text: HEK293 cells inducible for P301L mutant human Tau (isoform 2N4R) were established at Janssen. Thiamet-G was used for both plate validation (high control) and as reference compound (reference EC50 assay validation). […] Inhibition of OGA will result in an increase of O-GlcNAcylated protein levels resulting in an increased signal in the experiment. […] ICC pictures are imaged with a Perkin Elmer Opera Phenix plate microscope and quantified with the provided software Perkin Elmer Harmony 4.1.
Cells were propagated in DMEM high Glucose (Sigma, # D5796) following standard procedures. […] At the day of compound test medium from assay plates was removed and replenished with 90 μl of fresh Assay Medium. 10 μl of compounds at a 10 fold final concentration were added to the wells. Plates were centrifuged shortly before incubation in the cell incubator for 6 hours. DMSO concentration was set to 0.2%. Medium is discarded by applying vacuum. For staining of cells medium was removed and cells washed once with 100 μl D-PBS (Sigma, # D8537). From next step onwards unless other stated assay volume was always 50 μl and incubation was performed without agitation and at room temperature. […] Before analysis samples were washed 2 times manually for 5 minutes in ICC base buffer.
Imaging is performed using Perkin Elmer Phenix Opera using a water 20× objective and recording 9 fields per well. Intensity readout at 488 nm is used as a measure of O-GlcNAcylation level of total proteins in wells. To assess potential toxicity of compounds nuclei were counted using the Hoechst staining. IC50-values are calculated using parametric non-linear regression model fitting. As a maximum inhibition Thiamet G at a 200 uM concentration is present on each plate. In addition, a concentration response of Thiamet G is calculated on each plate.

[2] = Enzymatic protocol B (2 nM OGA, 6 h)
[3] = Enzymatic protocol A (10 nM OGA, 1 h)

Structure (SMILES)	Emax [1, 2] [%]	IC50 [1, 2] [nM]	EC50 (OGA) [nM]	Emax (OGA) [%]	Enzymatic Emax (%) [1, 2] [%]	Enzymatic hOGA; pIC50 [1, 2]	Cellular hOGA; pEC50 (OGA)	Cellular Emax (%) (OGA)	Emax [1, 3] [%]	IC50 [1, 3] [nM]
CC(=O)Nc1ncc(CN2CCCC(c3cnc4cc[nH]c4c3)C2)s1 (racemic) [Product 26]	123	40.7	24	99	–	–	–	–	–	–
CC(=O)Nc1ncc(CN2CCCC(c3nc(C)cc4ccn(C)c34)C2)s1 (centres unmarked) [Product 88]	101	83.2	407	57.4	–	–	–	–	–	–
CC(=O)Nc1ncc(CN2CC[C@H](Cc3cccc4nccn34)C2)s1 [Product 107]	101	8.13	55	82	–	–	–	–	–	–
CC(=O)Nc1ncc(CN2CCCC(c3ccc4ccn(C)c4n3)C2)s1 (centres unmarked) [Product 73]	101	81.3	195	87.2	–	–	–	–	–	–
CC(=O)Nc1ncc(CN2CCCC(Cc3cc(C)nc4ncnn34)C2)s1 (centres unmarked) [Product 46]	99.8	2.34	14.8	114	–	–	–	–	–	–
CC(=O)Nc1ncc(CN2CCCC(c3cc(C)nc4nccn34)C2)s1 (centres unmarked) [Product 17]	101	8.51	55	106	–	–	–	–	–	–
CC(c1ccc2c(c1)OCO2)N1CCOC(c2ccnc3ncnn23)C1 (centres unmarked) [Product 55]	51.8	9550	> 10000	1.01	–	–	–	–	–	–
CC(=O)Nc1ncc(CN2CCC[C@H](c3ccnc4ccn(C)c34)C2)s1 (single isomer, unassigned) [Product 71]	100	12.6	87.1	79.2	–	–	–	–	–	–
CC(=O)Nc1ncc(CN2CCC(Cc3cnc4ccn(C)c4c3)C2)s1 (centres unmarked) [Product 69]	99.6	3.02	23.4	108	–	–	–	–	–	–
CC(=O)Nc1ncc(CN2CCCC(c3nc(C)cc4cc[nH]c34)C2)s1 (centres unmarked) [Product 93]	–	–	–	–	101.08	7.35	7.61	87.83	–	–
CC(=O)Nc1ncc(CN2CCCC(c3cc(C)nc4ccn(C)c34)C2)s1 (centres unmarked) [Product 86]	–	–	–	–	102.93	8.38	7.18	100.91	–	–
CC(=O)Nc1ncc(CN2CCC3(CC3)C(c3cc(C(F)F)nc4ncnn34)C2)s1 (centres unmarked) [Product 64]	–	–	4790	84.5	–	–	–	–	101	69.2
CC(=O)Nc1ncc(CN2CCCC(c3ccnc4cc[nH]c34)C2)s1 (racemic) [Product 15]	97.8	37.2	12.3	95.2	–	–	–	–	–	–
CC(=O)Nc1ncc(CN2CCC(Cc3cccc4nccn34)C2)s1 (centres unmarked) [Product 50]	99.6	9.33	33.9	103	–	–	–	–	–	–
CC(=O)Nc1ncc(CN2CCCC(c3cc4ccn(C)c4nc3C)C2)s1 (centres unmarked) [Product 101]	102	6.61	9.33	114	–	–	–	–	–	–
CC(=O)Nc1ncc(CN2CCCC(Cc3c(F)c(C)nc4ncnn34)C2)s1 (centres unmarked) [Product 47]	102	1.26	15.5	109	–	–	–	–	–	–
CC(=O)Nc1ncc(CN2CCC[C@@H](c3cnc4ccn(C)c4c3)C2)s1 (single isomer, unassigned) [Product 79]	–	–	–	–	102.15	8.14	7.87	101.35	–	–
CC(=O)Nc1ncc(CN2CCC(Cc3cc(C)nc4ncnn34)C2)s1 (centres unmarked) [Product 48]	103	1.74	17	104	–	–	–	–	–	–
CC(=O)Nc1ncc(CN2CCCC(c3cnc4cc[nH]c4c3)C2)s1 (centres unmarked) [Product 106]	101	275	282	71	–	–	–	–	–	–
CC(=O)Nc1ncc(CN2CCC[C@H](c3cnc4cc[nH]c4c3)C2)s1 (single isomer, unassigned) [Product 80]	–	–	–	–	99.58	7.69	7.72	109.88	–	–
Cc1cc(C2CCCN(C(C)c3ccc4c(c3)OCO4)C2)n2ccnc2n1 (centres unmarked) [Product 52]	101	18.6	2630	131	–	–	–	–	–	–
c1cc(CC2CCN(Cc3ccc4nccnc4c3)C2)n2ccnc2c1 (centres unmarked) [Product 58]	97.3	245	> 10000	4.1	–	–	–	–	–	–
CC(=O)Nc1ncc(CN2CCCC(c3ccnc4nccn34)C2)s1 (racemic) [Product 10]	100	35.5	209	99	–	–	–	–	–	–
CC(=O)Nc1ncc(CN2CCCC(c3cccc4nccn34)C2)s1 (racemic) [Product 12]	105	10.7	20.9	103	–	–	–	–	–	–
CC(=O)Nc1ncc(CN2CCCC(c3ccc4c(ccn4C)n3)C2)s1 (centres unmarked) [Product 100]	98.5	309	195	85.7	–	–	–	–	–	–
CC(=O)Nc1ncc(CN2CCCC(Cc3cnc4cc[nH]c4c3)C2)s1 (centres unmarked) [Product 97]	102	1.74	7.76	109	–	–	–	–	–	–
CC(=O)Nc1ncc(CN2CCC[C@H](c3cc4cc[nH]c4nc3C)C2)s1 (single isomer, unassigned) [Product 75]	–	–	–	–	100.81	8.57	7.90	119.60	–	–
CC(=O)Nc1ncc(CN2CCCC(Cc3cc(C)nc4ccnn34)C2)s1 (centres unmarked) [Product 44]	101	3.8	35.5	129	–	–	–	–	–	–
CC(=O)Nc1ncc(CN2CCCC(Cc3cccc4nccn34)C2)s1 (centres unmarked) [Product 66]	101	29.5	18.2	97.3	–	–	–	–	–	–

Source: patent US20200157092A1, “[1,2,4]-TRIAZOLO [1,5-A]-PYRIMIDINYL DERIVATIVES SUBSTITUTED WITH PIPERIDINE, […] […] OGA INHIBITORS” (priority 2017, published 2020)
